Results on 20 molecules are retold here after patent US12102648B2, “Orally-bioavailable nucleoside analogs” (priority 2021, dated 2024).

Where two headings read alike, the source gives them in different places.

This data set in a line: in vitro. It counts as in vitro ADME. As to conditions: human. In short, it runs like this: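 Permeability measured in both directions across 19-day Caco-2 layers with TEER above 600 […], incubated at 37° C without shaking; donor and receiver sampled at 10 and 90 min for LC/MS/MS. Derived values: Papp (cm/s), efflux ratio, recovery.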
Where [1] appears, read: Caco-2 monolayer, apical to basolateral, 90-minute incubation, read-out: Papp, A-B.
Where [2] appears, read: Caco-2 monolayer, basolateral to apical, 90-minute incubation, read-out: Papp, B-A.
Setting [3] is: Caco-2 monolayer, ER>2 indicates potential efflux transporter substrate, read-out: ER (efflux ratio).

Consider `N#C[C@@]1(c2ccc3c(NC(=O)c4ccccc4)ncnn23)O[C@H](CO)[C@@H](O)[C@H]1O` [Compound 85, N-(7-((2R,3R,4S,5R)-2-cyano-3,4-dihydroxy-5-(hydroxymethyl)tetrahydrofuran-2-yl)pyrrolo[2,1-f][1,2,4]triazin-4-yl)benzamide], for which, for the setting “Caco-2”, the Papp A→B (in general, how fast a substance crosses the layer from the apical side) at 90 min worked out at 0.37 ×10⁻⁶ cm/s; the Papp B→A (in general, the apparent permeability from the basolateral to the apical side of a cell layer) at 90 min is 11 ×10⁻⁶ cm/s; the efflux ratio at 90 min came out at 31.
For `CCCCCOC(=O)Nc1ncnn2c([C@]3(C#N)O[C@H](COC(=O)[C@@H](N)C(C)C)[C@@H](O)[C@H]3O)ccc12` [Compound 86, ((2R,3S,4R,5R)-5-cyano-3,4-dihydroxy-5-(4-(((pentyloxy)carbonyl)amino)pyrrolo[2,1-f][1,2,4]triazin-7-yl)tetrahydrofuran-2-yl)methyl L-valinate], where the note is “Caco-2”, the Papp A→B at 90 min was determined as 0.33 ×10⁻⁶ cm/s, the Papp B→A at 90 min came to 11 ×10⁻⁶ cm/s and the efflux ratio at 90 min was determined as 35.
Consider `CCCCCOC(=O)Nc1ncnn2c([C@]3(C#N)O[C@H](COC(C)=O)[C@@H](O)[C@H]3O)ccc12` [Compound 87, ((2R,3S,4R,5R)-5-cyano-3,4-dihydroxy-5-(4-(((pentyloxy)carbonyl)amino)pyrrolo[2,1-f][1,2,4]triazin-7-yl)tetrahydrofuran-2-yl)methyl acetate], for which, for the setting “Caco-2”, the Papp A→B at 90 min came out at 5.5 ×10⁻⁶ cm/s, the Papp B→A at 90 min stood at 14 ×10⁻⁶ cm/s and the efflux ratio at 90 min stood at 2.7.
The matching figures for `CCCCCOC(=O)Nc1ncnn2c([C@]3(C#N)O[C@H](COC(=O)CC4CCCCC4)[C@@H](O)[C@H]3O)ccc12` [Compound 88, ((2R,3S,4R,5R)-5-cyano-3,4-dihydroxy-5-(4-(((pentyloxy)carbonyl)amino)pyrrolo[2,1-f][1,2,4]triazin-7-yl)tetrahydrofuran-2-yl)methyl 2-cyclohexylacetate]: 2.1 ×10⁻⁶ cm/s, 1.6 ×10⁻⁶ cm/s and 0.78.
Consider `CCCCCOC(=O)Nc1ncnn2c([C@]3(C#N)O[C@H](COC(=O)Cc4ccccc4)[C@@H](O)[C@H]3O)ccc12` [Compound 89, ((2R,3S,4R,5R)-5-cyano-3,4-dihydroxy-5-(4-(((pentyloxy)carbonyl)amino)pyrrolo[2,1-f][1,2,4]triazin-7-yl)tetrahydrofuran-2-yl)methyl 2-phenylacetate], for which the Papp A→B at 90 min under setting [1] is 2.1 ×10⁻⁶ cm/s. Also, under setting [2], the Papp B→A at 90 min was found to be 6.6 ×10⁻⁶ cm/s. The efflux ratio at 90 min under setting [3] worked out at 3.2.
Consider `CCCCCOC(=O)Nc1ncnn2c([C@]3(C#N)O[C@H](COC(=O)CC)[C@@H](O)[C@H]3O)ccc12` [Compound 91, ((2R,3S,4R,5R)-5-cyano-3,4-dihydroxy-5-(4-(((pentyloxy)carbonyl)amino)pyrrolo[2,1-f][1,2,4]triazin-7-yl)tetrahydrofuran-2-yl)methyl propionate], for which, under setting [1], the Papp A→B at 90 min stood at 1.9 ×10⁻⁶ cm/s. Moreover, the Papp B→A at 90 min under setting [2] came out at 4.1 ×10⁻⁶ cm/s. Under setting [3], the efflux ratio at 90 min was 2.1.
Turning to `CCCCCOC(=O)Nc1ncnn2c([C@]3(C#N)O[C@H](COC(=O)C(C)C)[C@@H](O)[C@H]3O)ccc12` [Compound 92, ((2R,3S,4R,5R)-5-cyano-3,4-dihydroxy-5-(4-(((pentyloxy)carbonyl)amino)pyrrolo[2,1-f][1,2,4]triazin-7-yl)tetrahydrofuran-2-yl)methyl isobutyrate], where the note is “Caco-2”, the Papp A→B at 90 min came out at 2.7 ×10⁻⁶ cm/s, the Papp B→A at 90 min came out at 4.6 ×10⁻⁶ cm/s and the efflux ratio at 90 min was 1.7.
As to `CCCCCOC(=O)Nc1ncnn2c([C@]3(C#N)O[C@H](COC(=O)CC(C)C)[C@@H](O)[C@H]3O)ccc12` [Compound 93, ((2R,3S,4R,5R)-5-cyano-3,4-dihydroxy-5-(4-(((pentyloxy)carbonyl)amino)pyrrolo[2,1-f][1,2,4]triazin-7-yl)tetrahydrofuran-2-yl)methyl 3-methylbutanoate], where the note is “Caco-2”, the Papp A→B at 90 min is 2.8 ×10⁻⁶ cm/s, the Papp B→A at 90 min came out at 1.5 ×10⁻⁶ cm/s and the efflux ratio at 90 min was found to be 0.54.
In the case of `CC(C)[C@H](N)C(=O)OC[C@H]1O[C@@](C#N)(c2ccc3c(NC(=O)[C@@H](N)Cc4ccc(F)cc4)ncnn23)[C@H](O)[C@@H]1O` [Compound 94, ((2R,3S,4R,5R)-5-(4-((S)-2-amino-3-(4-fluorophenyl)propanamido)pyrrolo[2,1-f][1,2,4]triazin-7-yl)-5-cyano-3,4-dihydroxytetrahydrofuran-2-yl)methyl L-valinate], for the setting “Caco-2”, the Papp A→B at 90 min was 0.07 ×10⁻⁶ cm/s, the Papp B→A at 90 min turned out to be 0.64 ×10⁻⁶ cm/s and the efflux ratio at 90 min is 9.1.
As to `N#C[C@@]1(c2ccc3c(NC(=O)[C@@H](N)Cc4ccc(F)cc4)ncnn23)O[C@H](COC(=O)CC2CCCCC2)[C@@H](O)[C@H]1O` [Compound 96, ((2R,3S,4R,5R)-5-(4-((S)-2-amino-3-(4-fluorophenyl)propanamido)pyrrolo[2,1-f][1,2,4]triazin-7-yl)-5-cyano-3,4-dihydroxytetrahydrofuran-2-yl)methyl 2-cyclohexylacetate], where the note is “Caco-2”, the Papp A→B at 90 min came to 0.45 ×10⁻⁶ cm/s, the Papp B→A at 90 min came to 5.2 ×10⁻⁶ cm/s and the efflux ratio at 90 min was 12.
Take `N#C[C@@]1(c2ccc3c(NC(=O)[C@@H](N)Cc4ccc(F)cc4)ncnn23)O[C@H](COC(=O)Cc2ccccc2)[C@@H](O)[C@H]1O` [Compound 97, ((2R,3S,4R,5R)-5-(4-((S)-2-amino-3-(4-fluorophenyl)propanamido)pyrrolo[2,1-f][1,2,4]triazin-7-yl)-5-cyano-3,4-dihydroxytetrahydrofuran-2-yl)methyl 2-phenylacetate]: the Papp A→B at 90 min under setting [1] came out at 3.8 ×10⁻⁶ cm/s. The Papp B→A at 90 min under setting [2] stood at 6.6 ×10⁻⁶ cm/s. In addition, the efflux ratio at 90 min under setting [3] came out at 1.8.
Take `CC(C)C(=O)OC[C@H]1O[C@@](C#N)(c2ccc3c(NC(=O)[C@@H](N)Cc4ccc(F)cc4)ncnn23)[C@H](O)[C@@H]1O` [Compound 100, ((2R,3S,4R,5R)-5-(4-((S)-2-amino-3-(4-fluorophenyl)propanamido)pyrrolo[2,1-f][1,2,4]triazin-7-yl)-5-cyano-3,4-dihydroxytetrahydrofuran-2-yl)methyl isobutyrate]: under “Caco-2”, the Papp A→B at 90 min stood at 0.03 ×10⁻⁶ cm/s, the Papp B→A at 90 min is 2.7 ×10⁻⁶ cm/s and the efflux ratio at 90 min came to 92.
For the molecule `CC(C)CC(=O)OC[C@H]1O[C@@](C#N)(c2ccc3c(NC(=O)[C@@H](N)Cc4ccc(F)cc4)ncnn23)[C@H](O)[C@@H]1O` [Compound 101, ((2R,3S,4R,5R)-5-(4-((S)-2-amino-3-(4-fluorophenyl)propanamido)pyrrolo[2,1-f][1,2,4]triazin-7-yl)-5-cyano-3,4-dihydroxytetrahydrofuran-2-yl)methyl 3-methylbutanoate], for the setting “Caco-2”, the Papp A→B at 90 min was 0.07 ×10⁻⁶ cm/s, the Papp B→A at 90 min stood at 13 ×10⁻⁶ cm/s and the efflux ratio at 90 min is 175.
In the case of `CC(C)[C@H](N)C(=O)OC[C@H]1O[C@@](C#N)(c2ccc3c(NC(=O)c4ccccc4)ncnn23)[C@H](O)[C@@H]1O` [Compound 102, ((2R,3S,4R,5R)-5-(4-benzamidopyrrolo[2,1-f][1,2,4]triazin-7-yl)-5-cyano-3,4-dihydroxytetrahydrofuran-2-yl)methyl L-valinate], for the setting “Caco-2”, the Papp A→B at 90 min is 0.02 ×10⁻⁶ cm/s, the Papp B→A at 90 min was determined as 6.7 ×10⁻⁶ cm/s and the efflux ratio at 90 min amounted to 280.
As for `CC(=O)OC[C@H]1O[C@@](C#N)(c2ccc3c(NC(=O)c4ccccc4)ncnn23)[C@H](O)[C@@H]1O` [Compound 103, ((2R,3S,4R,5R)-5-(4-benzamidopyrrolo[2,1-f][1,2,4]triazin-7-yl)-5-cyano-3,4-dihydroxytetrahydrofuran-2-yl)methyl acetate], where the note is “Caco-2”, the Papp A→B at 90 min was 1.5 ×10⁻⁶ cm/s, the Papp B→A at 90 min was 12 ×10⁻⁶ cm/s and the efflux ratio at 90 min came out at 8.
For the molecule `N#C[C@@]1(c2ccc3c(NC(=O)c4ccccc4)ncnn23)O[C@H](COC(=O)Cc2ccccc2)[C@@H](O)[C@H]1O` [Compound 105, ((2R,3S,4R,5R)-5-(4-benzamidopyrrolo[2,1-f][1,2,4]triazin-7-yl)-5-cyano-3,4-dihydroxytetrahydrofuran-2-yl)methyl 2-phenylacetate], the Papp A→B at 90 min under setting [1] is 0.77 ×10⁻⁶ cm/s. The Papp B→A at 90 min under setting [2] amounted to 1.4 ×10⁻⁶ cm/s. The efflux ratio at 90 min under setting [3] was found to be 1.8.
With `CCC(=O)OC[C@H]1O[C@@](C#N)(c2ccc3c(NC(=O)c4ccccc4)ncnn23)[C@H](O)[C@@H]1O` [Compound 107, ((2R,3S,4R,5R)-5-(4-benzamidopyrrolo[2,1-f][1,2,4]triazin-7-yl)-5-cyano-3,4-dihydroxytetrahydrofuran-2-yl)methyl propionate], the Papp A→B at 90 min under setting [1] was 2.1 ×10⁻⁶ cm/s. Further, under setting [2], the Papp B→A at 90 min amounted to 7.5 ×10⁻⁶ cm/s. For the same molecule, the efflux ratio at 90 min under setting [3] amounted to 3.6.
For the molecule `CC(C)C(=O)OC[C@H]1O[C@@](C#N)(c2ccc3c(NC(=O)c4ccccc4)ncnn23)[C@H](O)[C@@H]1O` [Compound 108, ((2R,3S,4R,5R)-5-(4-benzamidopyrrolo[2,1-f][1,2,4]triazin-7-yl)-5-cyano-3,4-dihydroxytetrahydrofuran-2-yl)methyl isobutyrate], where the note is “Caco-2”, the Papp A→B at 90 min was found to be 1.5 ×10⁻⁶ cm/s, the Papp B→A at 90 min was 2 ×10⁻⁶ cm/s and the efflux ratio at 90 min is 1.4.
Consider `CC(C)CC(=O)OC[C@H]1O[C@@](C#N)(c2ccc3c(NC(=O)c4ccccc4)ncnn23)[C@H](O)[C@@H]1O` [Compound 109], for which, for the setting “Caco-2”, the Papp A→B at 90 min is 1.4 ×10⁻⁶ cm/s, the Papp B→A at 90 min was 1.3 ×10⁻⁶ cm/s and the efflux ratio at 90 min came out at 0.9.
Take `CC(C)[C@H](N)C(=O)Nc1ncnn2c([C@]3(C#N)O[C@H](COC(=O)[C@@H](N)C(C)C)[C@@H](O)[C@H]3O)ccc12` [Compound 110, ((2R,3S,4R,5R)-5-(4-((S)-2-amino-3-methylbutanamido)pyrrolo[2,1-f][1,2,4]triazin-7-yl)-5-cyano-3,4-dihydroxytetrahydrofuran-2-yl)methyl L-valinate]: where the note is “Caco-2”, the Papp A→B at 90 min turned out to be 0.02 ×10⁻⁶ cm/s, the Papp B→A at 90 min was 0.33 ×10⁻⁶ cm/s and the efflux ratio at 90 min amounted to 15.
